Columns and labels:
Format in all cases: in vivo
[1] = test system: Polygonum convolvulus (POLCO); experiment: Herbicidal pre-emergence action, section C (Table C7); settings: visual grading after ca. 3 weeks; for pest or weed control at 320 g/ha: application rate 320 g/ha
Description: (§1) Seeds of mono- and dicotyledonous weed plants and crop plants were sown, in plastic or organic planting pots, in sandy loam and covered with soil. The compounds according to the invention, formulated in the form of wettable powders (WP) or as emulsifiable concentrates (EC), were applied to the surface of the covering soil as aqueous suspension or emulsion, with the addition of 0.5% of an additive, at an application rate of 600 l of water/ha (converted). Following treatment, the pots were placed in a greenhouse and kept under optimum growth conditions for the test plants. The visual grading of the damage to the test plants was carried out after ca. 3 weeks in comparison to untreated controls (herbicidal effect in percent (%): 100% effect=plants have died off, 0% effect=as control plants).

Glycine max (GLXMA) = experiment: Post-emergence effects on crop plants, section F (Table F4); settings: for percent crop plant damage at 320 g/ha: application rate 320 g/ha
Summary of the method: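 Post-emergence greenhouse test: crops grown 2 to 3 weeks in sandy loam, sprayed at 320 g/ha or less in 600 l water/ha with 0.5% additive. Injury rated visually as percent relative to controls roughly three weeks later.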

Veronica persica (VERPE) = experiment: Herbicidal pre-emergence action, section A (Table A10)
Summary of the method: (§2)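 Test plants, grown from seed sown in sandy loam with two species per pot, were treated pre-emergence by spraying the covering soil with WP or EC formulations at 600 l/ha water plus 0.5% additive. Visual grading of percent damage followed at ca. 3 weeks.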

[2] = test system: Abutilon theophrasti (ABUTH); experiment: Herbicidal pre-emergence action, section C (Table C1); settings: Abutilon theophrasti, pre-emergence, 504 h; application rate 320 g/ha; visual grading after ca. 3 weeks vs untreated controls; read-out: pre-emergence activity against ABUTH in %
Description: as §1

Lolium rigidum (LOLRI) = experiment: Herbicidal pre-emergence action, section C (Table C5); settings: visual grading after ca. 3 weeks; for pest or weed control at 320 g/ha / pre-emergence activity against LOLRI in %: application rate 320 g/ha
Description: as §1

[3] = test system: Echinochloa crus-galli (ECHCG); experiment: Herbicidal pre-emergence action, section C (Table C3); settings: visual grading after ca. 3 weeks vs untreated controls; for pest or weed control at 320 g/ha / pest or weed control at 80 g/ha: Echinochloa crus-galli, pre-emergence, 504 h, read-out: pre-emergence activity against ECHCG in %; for pest or weed control at 320 g/ha / pre-emergence activity against ECHCG in %: application rate 320 g/ha; for pest or weed control at 80 g/ha: application rate 80 g/ha
Summary of the method: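 Compounds applied as aqueous WP or EC preparations (0.5% additive, 600 l water/ha) onto soil covering freshly sown seeds in sandy loam. Herbicidal effect is visually estimated % damage after about 3 weeks, where 100% means plants died off and 0% matches controls.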

Kochia scoparia (KCHSC) [4] = experiment: Herbicidal post-emergence action, section B (Table B4); settings: visual rating about 3 weeks after treatment vs untreated controls; for pest or weed control at 1280 g/ha: Bassia scoparia, post-emergence, 504 h, read-out: post-emergence activity against KCHSC in %
Summary of the method: (§3)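 Scores are visual % activity relative to untreated plants (0% = like control, 100% = dead), taken about 3 weeks after spraying. Compounds, as WP or EC in water with 0.5% additive at 600 L/ha, went onto one-leaf-stage weeds grown from seed in sandy loam under greenhouse conditions.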

Poa annua (POAAN) = experiment: Herbicidal pre-emergence action, section A (Table A7); settings: visual grading after ca. 3 weeks vs untreated controls; for pest or weed control at 320 g/ha: Poa annua, pre-emergence, 504 h, read-out: pre-emergence activity against POAAN in %
Summary of the method: as §2

Kochia scoparia (KCHSC) [5] = experiment: Herbicidal pre-emergence action, section A (Table A4); settings: visual grading after ca. 3 weeks vs untreated controls
Summary of the method: as §2

[6] = test system: Abutilon theophrasti (ABUTH); experiment: Herbicidal post-emergence action, section E (Table E1); settings: Abutilon theophrasti, post-emergence, 504 h; application rate 320 g/ha; assessed visually after ca. 3 weeks; read-out: post-emergence activity against ABUTH in %
Description: Seeds of mono- and dicotyledonous weed plants and crop plants were sown, in plastic or organic planting pots, in sandy loam, covered with soil and grown in a greenhouse under controlled growth conditions. 2 to 3 weeks after sowing, the test plants were sprayed in the single-leaf stage. The compounds according to the invention, formulated in form of wettable powders (WP) or as emulsifiable concentrates (EC), were sprayed onto the green plant parts as aqueous suspension or emulsion, with the addition of 0.5% of an additive, at an application rate of 600 l of water/ha (converted). The test plants were placed in the greenhouse for ca. 3 weeks under optimum growth conditions, and then the effect of the preparations was assessed visually in comparison with untreated controls (herbicidal effect in percent (%): 100% effect=plants have died off, 0% effect=as control plants).

[7] = test system: Abutilon theophrasti (ABUTH); experiment: Herbicidal post-emergence action, section B (Table B1); settings: Abutilon theophrasti, 504 h, application rate 1280 g/ha, rated visually after about 3 weeks, read-out: post-emergence activity against ABUTH in %
Summary of the method: as §3

[8] = Fallopia convolvulus, pre-emergence, 504 h, read-out: pre-emergence activity against POLCO in %
[9] = Glycine max, 504 h, read-out: post-emergence activity against GLXMA in %
[10] = Lolium rigidum, pre-emergence, 504 h, read-out: pre-emergence activity against LOLRI in %

Question: For CC(=O)N1CSc2cc(Br)c(-c3ccccc3Cl)nc21 [Example I-055, 1-[6-bromo-5-(2-chlorophenyl)[1,3]thiazolo[4,5-b]pyridin-3(2H)-yl]ethanone], which pest or weed control at 320 g/ha [1, 8] is on record?
Answer: 80%

Question: And the percent crop plant damage at 320 g/ha (Glycine max (GLXMA); [9])?
Answer: 20%

Question: What about the pest or weed control at 320 g/ha (Veronica persica (VERPE); Veronica persica, 504 h, application rate 320 g/ha, read-out: pre-emergence activity against VERPE in %) of the same molecule?
Answer: 90%

Question: What about the pest or weed control at 320 g/ha [2] of the same molecule?
Answer: 80%

Question: And the pest or weed control at 320 g/ha (Lolium rigidum (LOLRI); [10])?
Answer: 90%

Question: And the pest or weed control at 320 g/ha [3]?
Answer: 100%

Question: What about the pest or weed control at 1280 g/ha (Kochia scoparia (KCHSC) [4]; application rate 1280 g/ha) of the same molecule?
Answer: 90%

Question: And the pest or weed control at 320 g/ha (Poa annua (POAAN); application rate 320 g/ha)?
Answer: 100%

Question: And the pest or weed control at 320 g/ha (Kochia scoparia (KCHSC) [5]; Bassia scoparia, pre-emergence, 504 h, application rate 320 g/ha, read-out: pre-emergence activity against KCHSC in %)?
Answer: 90%

Question: Which “pre-emergence activity against POLCO in %” value ([1]; application rate 80 g/ha) does the source give for Cc1cc2c(nc1-c1cccc(C)c1F)NCS2 [Example I-113] here?
Answer: 90%

Question: And the “post-emergence activity against GLXMA in %” value (Glycine max (GLXMA); crop plant damage, application rate 80 g/ha)?
Answer: 0%

Question: And the “pre-emergence activity against VERPE in %” value (Veronica persica (VERPE); application rate 1280 g/ha)?
Answer: 90%

Question: And the “pre-emergence activity against LOLRI in %” value (Lolium rigidum (LOLRI))?
Answer: 90%

Question: What about the “pre-emergence activity against ECHCG in %” value [3] of the same molecule?
Answer: 100%

Question: And the “post-emergence activity against KCHSC in %” value (Kochia scoparia (KCHSC) [4]; application rate 320 g/ha)?
Answer: 90%

Question: What about the “pre-emergence activity against POAAN in %” value (Poa annua (POAAN); application rate 1280 g/ha) of the same molecule?
Answer: 100%

Question: And the “pre-emergence activity against KCHSC in %” value (Kochia scoparia (KCHSC) [5]; application rate 320 g/ha)?
Answer: 90%

Question: What does the source list for CC1(C(=O)N2CSc3cc(Br)c(-c4ccccc4Cl)nc32)CC(Cl)=NO1 (centres unmarked) [Example I-141, [6-bromo-5-(2-chlorophenyl)[1,3]thiazolo[4,5-b]pyridin-3(2H)-yl](3-chloro-5-methyl-4,5-dihydro-1,2-oxazol-5-yl)methanone]?
Answer: pest or weed control at 320 g/ha [1, 8]: 80%; percent crop plant damage at 80 g/ha (Glycine max (GLXMA); Glycine max, 504 h, application rate 80 g/ha, read-out: post-emergence activity against GLXMA in %): 20%; pest or weed control at 1280 g/ha (Veronica persica (VERPE); Veronica persica, 504 h, application rate 1280 g/ha, read-out: pre-emergence activity against VERPE in %): 90%; pest or weed control at 320 g/ha [2]: 90%; pest or weed control at 320 g/ha [3]: 100%; pest or weed control at 1280 g/ha (Kochia scoparia (KCHSC) [4]; application rate 1280 g/ha): 90%; pest or weed control at 320 g/ha [6]: 80%; pest or weed control at 1280 g/ha [7]: 90%; pest or weed control at 320 g/ha (Poa annua (POAAN); application rate 320 g/ha): 100%; pest or weed control at 1280 g/ha (Kochia scoparia (KCHSC) [5]; Bassia scoparia, pre-emergence, 504 h, application rate 1280 g/ha, read-out: pre-emergence activity against KCHSC in %): 100%

Question: Which pest or weed control at 80 g/ha ([1]; Fallopia convolvulus, pre-emergence, 504 h, application rate 80 g/ha, read-out: pre-emergence activity against POLCO in %) does the source give for CC(C)C(=O)N1C[S+]([O-])c2cc(Br)c(-c3ccccc3)nc21 (centres unmarked) [Example I-067] here?
Answer: 90%

Question: And the percent crop plant damage at 320 g/ha (Glycine max (GLXMA); [9])?
Answer: 10%

Question: What about the pest or weed control at 320 g/ha (Lolium rigidum (LOLRI); [10]) of the same molecule?
Answer: 80%

Question: What about the pest or weed control at 80 g/ha [3] of the same molecule?
Answer: 90%

Question: Which results are given for Cc1cc2c(nc1-c1ccccc1Cl)NCS2 [Example I-049, 5-(2-chlorophenyl)-6-methyl-2,3-dihydro[1,3]thiazolo[4,5-b]pyridine]?
Answer: pest or weed control at 320 g/ha [1, 8]: 80%; pest or weed control at 320 g/ha [2]: 80%; pest or weed control at 80 g/ha (Lolium rigidum (LOLRI); Lolium rigidum, pre-emergence, 504 h, application rate 80 g/ha, read-out: pre-emergence activity against LOLRI in %): 100%; pest or weed control at 80 g/ha [3]: 100%

Question: Which results are given for BN1CSc2cc(Br)c(-c3ccccc3C)nc21 [Example I-011]?
Answer: pre-emergence activity against VERPE in % (Veronica persica (VERPE); application rate 1280 g/ha): 90%; pre-emergence activity against LOLRI in % (Lolium rigidum (LOLRI)): 100%; pre-emergence activity against ECHCG in % [3]: 100%; post-emergence activity against KCHSC in % (Kochia scoparia (KCHSC) [4]; application rate 1280 g/ha): 90%; pre-emergence activity against POAAN in % (Poa annua (POAAN); application rate 320 g/ha): 100%; pre-emergence activity against KCHSC in % (Kochia scoparia (KCHSC) [5]; application rate 1280 g/ha): 90%

From patent US20240381872A1, “SUBSTITUTED 2,3-DIHYDRO[1,3]THIAZOLO[4,5-B]PYRIDINES, SALTS THEREOF AND THEIR USE AS HERBICIDALLY ACTIVE SUBSTANCES” (BAYER AKTIENGESELLSCHAFT, priority 2021, published 2024)
